Measurements as given in PubChem BioAssay AID1963846 (Molecular Pharmacology Branch, DTP, NCI, 2024).
pIC50: −log10 of the molar value. Values joined by “and” are separate entries in the source; they are usually repeats but may differ in a detail not shown here. Equal values may be shown once.

Test system: 454973-116-R2-J3-PDC complex spheroid viability
Assay: Anticancer human tumor 454973-116-R2-J3-PDC patient-derived pancreatic carcinoma cell line growth inhibition [POLQ]
Details: for viability, T/C: stronger effect = lower value
Description: Multicellular complex tumor spheroid response to Polymerase (POL) inhibitors (novobiocin, ART-558, RP6685) in combination with a variety of drugs and investigational agents in selected tumor cell lines
The POL inhibitors (novobiocin, ART-558, and RP6685) were evaluated both individually and in combination with standard of care and investigational anticancer small molecules within a complex spheroid model of solid tumors. . Complex spheroids include a stromal component modeled by human endothelial cells (HUVEC) and fibroblasts modeled by human mesenchymal stem cells (MSCs). The concentration ranges selected for each drug and investigational agent were based upon clinically achievable concentrations if the clinical Cmax of the agent was known.
Compounds. The drugs and investigational agents: novobiocin (NSC847541), ART-558 (NSC835418), RP-6685 (NSC848927), peposertib (NSC802822), ceralasertib (NSC780249), elimusertib (NSC800525), camonsertib (NSC841442), AZD-1390 (NSC803789), olaparib (NSC753686), talazoparib (NSC767125), rucaparib (NSC756644), sotorasib (NSC818433), MRTX-1133 (NSC836407), SN-38 (NSC673596), topotecan (NSC609699), epotoside (NSC141540), doxorubicin (NSC123127), gemcitabine (NSC613327), 5-fluorouracil (NSC19893), paclitaxel (NSC125973), vemurafenib (NSC761431), MSA-2 (NSC828583), SN-011 (NSC837082), adavosertib (NSC754352), prexasertib (NSC758257), carboplatin (NSC241240) and oxaliplatin (NSC266046), were obtained from the National Cancer Institute (NCI) Developmental Therapeutics Program Chemical Repository (21). The FDA-approved anticancer drug set is available from the Developmental Therapeutics Program at https://dtp.cancer.gov/organization/dscb/obtaining/. […] The stock solutions were prepared in dimethyl sulfoxide (DMSO, Sigma-Aldrich, St. Louis, MO, cat. D2650), except for the platinum compounds which were prepared in saline (Quality Biological, Gaithersburg, MD, cat. 114-055-101), at 800-fold the tested concentration and stored at -70 degrees C prior to their use. All drugs and investigational agents were tested over a range starting from a high concentration at or near the clinical Cmax and decreasing in half-log increments. If the clinical Cmax for an agent had not been determined, the highest concentration tested was 10 microM, except for SN-38, which was tested at a high concentration of 1 microM.
Cell Culture. All cells were maintained in an incubator at 37 degrees C and 5% CO2 with 95% humidity. The PDC lines were cultured according to standard operating procedures established by the NCI PDMR (https://pdmr.cancer.gov). Table 3 of the manuscript, lists the cell lines along with the number of the three cell types plated to form the mct-spheroids and media for tumor cell growth. After thawing, all PDC lines, except 997537-175-T-J1-PDC and 415267-285-R-J2-PDC, were cultured in Matrigel-coated flasks prepared with a working solution of 1X Ham's F-12 nutrient mix, without supplementation (Thermo Fisher Scientific, cat. 11765054), 100 U/mL penicillin-streptomycin (Thermo Fisher Scientific, cat. 15140122), and 2.5% Matrigel (Corning Inc., Corning, NY, cat. 354248) for the first three passages. The two PDC lines 997537-175-T-J1-PDC and 415267-285-R-J2-PDC were cultured on uncoated flasks. The 857933-349-R-J2-PDC line was cultured in 6C/Colon 1B media containing advanced DMEM/F-12 (Thermo Fisher Scientific, cat. 12634028), 10 mM HEPES (Thermo Fisher Scientific, cat. 15630080), 1X GlutaMAX supplement (Thermo Fisher Scientific, cat. 35050061), 0.1 mg/mL primocin (InvivoGen, San Diego, CA, cat. ant-pm-2), 10% defined fetal bovine serum, heat inactivated (HyClone Laboratories Inc., Logan, UT, cat. SH30070.03HI), 50% L-WRN conditioned media (ATCC, cat. CRL-3276), 1.25 mM N-Acetyl-L-cysteine (Sigma-Aldrich, cat. A9165), 10 mM nicotinamide (Sigma-Aldrich, cat. N0636), 1X B-27 supplement (Thermo Fisher Scientific, cat. 17504044), 1X N-2 supplement (Thermo Fisher Scientific, cat. […]
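Further: spheroids exposed to drugs for seven days before measurement.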
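Wherever viability, T/C is given: percent viability relative to DMSO vehicle control wells taken as 100%.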

SMILES: CC(=O)O[C@H]1C(=O)[C@@]2(C)[C@H]([C@H](OC(=O)c3ccccc3)[C@]3(O)C[C@H](OC(=O)[C@H](O)[C@@H](NC(=O)c4ccccc4)c4ccccc4)C(C)=C1C3(C)C)[C@]1(OC(C)=O)CO[C@@H]1C[C@@H]2O + COC1C(OC(N)=O)C(O)C(Oc2ccc3c(O)c(NC(=O)c4ccc(O)c(CC=C(C)C)c4)c(=O)oc3c2C)OC1(C)C
- pIC50 (curve of first compound, second compound 0.0316 µM): > 8.02
- pIC50 (curve of first compound, second compound 0.1 µM): > 8.02
- pIC50 (curve of first compound, second compound 0.316 µM): > 8.02
- pIC50 (curve of first compound, second compound 1 µM): > 8.02
- pIC50 (curve of first compound, second compound 3.16 µM): > 8.02
- pIC50 (curve of first compound, second compound 10 µM): > 8.02
- viability, T/C (second compound 0.0316 µM, first compound 0.00949 µM): 11.9%
- viability, T/C (second compound 0.0316 µM, first compound 0.03 µM): 7.88%
- viability, T/C (second compound 0.0316 µM, first compound 0.0949 µM): 6.54%
- viability, T/C (second compound 0.0316 µM, first compound 0.3 µM): 5.33%
- viability, T/C (second compound 0.0316 µM, first compound 0.949 µM): 6.41%
- viability, T/C (second compound 0.0316 µM, first compound 3 µM): 7.66%
- viability, T/C (second compound 0.1 µM, first compound 0.00949 µM): 12.8%
- viability, T/C (second compound 0.1 µM, first compound 0.03 µM): 5.37%
- viability, T/C (second compound 0.1 µM, first compound 0.0949 µM): 5.19%
- viability, T/C (second compound 0.1 µM, first compound 0.3 µM): 5.57%
- viability, T/C (second compound 0.1 µM, first compound 0.949 µM): 5.27%
- viability, T/C (second compound 0.1 µM, first compound 3 µM): 3.86%
- viability, T/C (second compound 0.316 µM, first compound 0.00949 µM): 10.7%
- viability, T/C (second compound 0.316 µM, first compound 0.03 µM): 5.28%
- viability, T/C (second compound 0.316 µM, first compound 0.0949 µM): 6.4%
- viability, T/C (second compound 0.316 µM, first compound 0.3 µM): 4.53%
- viability, T/C (second compound 0.316 µM, first compound 0.949 µM): 6.27%
- viability, T/C (second compound 0.316 µM, first compound 3 µM): 5.12%
- viability, T/C (second compound 1 µM, first compound 0.00949 µM): 13.2%
- viability, T/C (second compound 1 µM, first compound 0.03 µM): 5.82%
- viability, T/C (second compound 1 µM, first compound 0.0949 µM): 6.61%
- viability, T/C (second compound 1 µM, first compound 0.3 µM): 5.98%
- viability, T/C (second compound 1 µM, first compound 0.949 µM): 5.03%
- viability, T/C (second compound 1 µM, first compound 3 µM): 5.86%
- viability, T/C (second compound 3.16 µM, first compound 0.00949 µM): 11.1%
- viability, T/C (second compound 3.16 µM, first compound 0.03 µM): 7.33%
- viability, T/C (second compound 3.16 µM, first compound 0.0949 µM): 4.63%
- viability, T/C (second compound 3.16 µM, first compound 0.3 µM): 3.97%
- viability, T/C (second compound 3.16 µM, first compound 0.949 µM): 3.87%
- viability, T/C (second compound 3.16 µM, first compound 3 µM): 4.77%
- viability, T/C (second compound 10 µM, first compound 0.00949 µM): 12.8%
- viability, T/C (second compound 10 µM, first compound 0.03 µM): 4.79%
- viability, T/C (second compound 10 µM, first compound 0.0949 µM): 7.63%
- viability, T/C (second compound 10 µM, first compound 0.3 µM): 5.47%
- viability, T/C (second compound 10 µM, first compound 0.949 µM): 3.92%
- viability, T/C (second compound 10 µM, first compound 3 µM): 5.39%

SMILES: O=C(Nc1ccc(O)c(NS(=O)(=O)c2ccc(F)cc2)c1)c1ccc(-c2ccccc2)cc1
- viability, T/C (compound 0.0316 µM): 103% and 108% and 98.8%
- viability, T/C (compound 0.1 µM): 104% and 96.5% and 103%
- viability, T/C (compound 0.316 µM): 100% and 110% and 106%
- viability, T/C (compound 1 µM): 94% and 101% and 106%
- viability, T/C (compound 3.16 µM): 96.4% and 116% and 115%
- viability, T/C (compound 10 µM): 87.7% and 89.7% and 98%
- pIC50 (curve of compound): < 5.00

SMILES: CCc1cc2c(N3CCc4c(cc(Cn5ccnc5)cc4-c4cn(C)nc4C(F)(F)F)C3=O)cc(C)nc2c(OC)n1
- viability, T/C (compound 0.0316 µM): 110% and 99.6% and 98.9%
- viability, T/C (compound 0.1 µM): 92% and 79.7% and 87.1%
- viability, T/C (compound 0.316 µM): 88.2% and 81.7% and 79.3%
- viability, T/C (compound 1 µM): 89.3% and 74.5% and 69.2%
- viability, T/C (compound 3.16 µM): 87% and 76.7% and 72.6%
- viability, T/C (compound 10 µM): 71.6% and 58.8% and 56.6%
- pIC50 (curve of compound): < 5.00

SMILES: Cc1cccc(N(C)C(=O)C2C(O)CCN2c2nc(C)cc(C(F)(F)F)c2C#N)c1 (centres undefined)
- viability, T/C (compound 0.0316 µM): 106% [middle of 13 runs]
- viability, T/C (compound 0.1 µM): 108% [middle of 13 runs]
- viability, T/C (compound 0.316 µM): 107% [middle of 13 runs]
- viability, T/C (compound 1 µM): 100% [middle of 13 runs]
- viability, T/C (compound 3.16 µM): 104% [middle of 13 runs]
- viability, T/C (compound 10 µM): 107% [middle of 13 runs]
- pIC50 (compound alone, run of 10/31/2023): < 5.00
- pIC50 (compound alone, run of 11/06/2023): < 5.00
